Data reported in patent US20260193250A1, “TOLL-LIKE RECEPTOR 7 AGONISTS AS IMMUNE-STIMULATORS TO ELICIT THE INNATE ANTITUMOR IMMUNITY” (Merck Patent GmbH, priority 2022, published 2026).

Molecular target: T1, hTLR7 (Homo sapiens, UniProt Q9NYK1)
T1 construct: host or cells: HEK-Blue hTLR7 (HEK293-derived SEAP reporter cells)
T1 sequence (Q9NYK1 27-1049): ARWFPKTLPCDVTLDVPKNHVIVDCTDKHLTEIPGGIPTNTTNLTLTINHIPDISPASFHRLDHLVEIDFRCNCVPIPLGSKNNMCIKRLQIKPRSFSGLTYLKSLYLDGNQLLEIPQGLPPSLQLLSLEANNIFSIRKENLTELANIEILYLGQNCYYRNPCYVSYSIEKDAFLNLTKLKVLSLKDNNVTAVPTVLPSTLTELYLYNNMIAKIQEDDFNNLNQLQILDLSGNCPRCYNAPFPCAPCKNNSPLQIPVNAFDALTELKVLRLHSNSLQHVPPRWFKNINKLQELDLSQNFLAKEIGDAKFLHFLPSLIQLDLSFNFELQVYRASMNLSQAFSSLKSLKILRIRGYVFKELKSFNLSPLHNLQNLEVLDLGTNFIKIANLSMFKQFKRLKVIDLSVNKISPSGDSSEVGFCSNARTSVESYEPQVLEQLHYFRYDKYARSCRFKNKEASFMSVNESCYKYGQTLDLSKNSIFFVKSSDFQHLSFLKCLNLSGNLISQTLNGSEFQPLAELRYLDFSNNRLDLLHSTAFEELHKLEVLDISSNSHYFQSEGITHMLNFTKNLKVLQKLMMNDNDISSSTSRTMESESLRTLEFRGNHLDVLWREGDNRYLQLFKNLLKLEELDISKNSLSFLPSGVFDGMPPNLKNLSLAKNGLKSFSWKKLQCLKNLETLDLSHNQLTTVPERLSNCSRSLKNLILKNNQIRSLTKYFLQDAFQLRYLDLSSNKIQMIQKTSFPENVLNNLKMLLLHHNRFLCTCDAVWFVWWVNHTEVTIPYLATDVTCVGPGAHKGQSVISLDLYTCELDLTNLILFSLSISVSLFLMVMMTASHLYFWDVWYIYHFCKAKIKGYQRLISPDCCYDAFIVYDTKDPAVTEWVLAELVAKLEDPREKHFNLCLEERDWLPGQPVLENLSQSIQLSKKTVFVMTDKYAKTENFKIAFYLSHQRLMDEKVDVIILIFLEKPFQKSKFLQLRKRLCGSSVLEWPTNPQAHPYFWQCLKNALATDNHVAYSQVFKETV
Test: TLR7 reporter assay in HEK-Blue cells (SEAP, Quanti-Blue)
Type: cell-based
Conditions: 24 hours incubation, SEAP absorbance at 620 nm
Procedure: HEK-Blue™ TLR7 and TLR8 cell lines were obtained from InvivoGen (San Diego, CA, USA). HEK-Blue cells were cultured in DMEM medium hi glucose (Gibco-10569010) supplemented with 10% HI-FBS (Aus origin) (Gibco-10100-147), 1% penicillin/streptomycin (Gibco-15140-122-100 ml) as per manufacturer's recommendation. In addition, specific antibiotic mixtures were added to the culture. 100 μg/ml Zeocin (11006-33-0), 10 μg/ml Blasticidin (ant-bl-05), 50 μg/ml Normocin (ANT-NR-1-500 MG) for HEK-Blue™ hTLR7 and 100 μg/ml Zeocin, 30 μg/ml Blasticidin, 50 μg/ml Normocin for HEK-Blue™ hTLR8 cells (all from InvivoGen).
All the compounds were prepared in 100% DMSO (Sigma-D2650). The compounds were serially diluted in 100% DMSO (3 fold) up to 10 point dose response curve starting with 30 μM; final concentration of DMSO in the plate was 0.3%. Resiquimod and TL8-506 (InvivoGen-tlrl-t18506) were used as controls. 0.3% DMSO and 10 μM Resiquimod were used as min and max respectively, and % activation was calculated using following formula:
% Activation: {100−(max absorbance−absorbance)/(max absorbance−min absorbance)}×100.
For stimulation with TLR7/8 agonists, cells were resuspended in complete media and 40 μl of cell suspension (10,000 cells/well) was seeded on day 1 in 384 well assay plate (Thermo Scientific™ Nunc-164688) having pre-dispensed compounds with Echo Liquid handler. The plate was spun at 100 g for 1 min to settle down the cells and incubated at 37° C. with 5% CO2 for 24 hours. For measuring production of SEAP after 24 hrs of incubation, 10 μl of Quanti-Blue™ solution (InvivoGen rep-qbs2) prepared according to manufacturer's instructions was added in dark to the assay plate and incubated at 37° C. with 5% CO2 for 30 min. Post incubation, the absorbance was measured at 620 nm in Tecan spark (Spark control Magellan). EC50 were determined using Graph Pad Prism Statistical software (Version 7.05), with individual data points represent the absorbance values of duplicates.

Compound | EC50 [nM]
CCOCc1nc2c(N)nc3ccccc3c2n1CC(C)(C)OCCCN1CCN(C)CC1 [Example 2] | 10 to 100
CCOCc1nc2c(N)nc3ccccc3c2n1CC(C)(C)OCCCCN1CCN(C)CC1 [Example 3] | < 10
CCOCc1nc2c(N)nc3ccccc3c2n1CC(C)(C)OCCCCCN1CCN(C)CC1 [Example 4] | < 10
CCOCc1nc2c(N)nc3ccccc3c2n1CC(C)(C)OCCCCN1CCOCC1 [Example 7] | 10 to 100
CCOCc1nc2c(N)nc3ccccc3c2n1CC(C)(C)OCCCCN1CCCCC1 [Example 8] | 10 to 100
CCOCc1nc2c(N)nc3ccccc3c2n1CC(C)(C)OCCCCN1CCCC1 [Example 9] | 10 to 100
CCOCc1nc2c(N)nc3ccccc3c2n1CC(C)(C)OCCCCN1CCNCC1 [Example 10] | 10 to 100
CCOCc1nc2c(N)nc3ccccc3c2n1CC(C)(C)OCCCCN1CCN(CCN)CC1 [Example 11] | 100 to 1000
CCOCc1nc2c(N)nc3ccccc3c2n1CC(C)(C)OCCCCn1cc(CO)nn1 [Example 13] | 10 to 100
CCOCc1nc2c(N)nc3ccccc3c2n1CC(C)(C)OCCCCn1cc(CN)nn1 [Example 14] | 10 to 100
CCNCc1nc2c(N)nc3ccccc3c2n1CC(C)(C)OCCCCN1CCN(C)CC1 [Example 18] | 1000 to 10000
CCOCc1nc2c(N)nc3ccccc3c2n1CC(C)(C)OC(=O)CN [Example 19] | 100 to 1000
CCOCc1nc2c(N)nc3ccccc3c2n1CC(C)(C)OCCCCN1CCN(CC(C)(C)SC)CC1 [Example 27] | 10 to 100
